Read-outs that look alike come from different tables or passages of the source.
How the values were obtained:
BipA (TypA or YihK) [1] = molecular target: T1, BipA (TypA or YihK) (Escherichia coli, UniProt P0DTT0); assay: isothermal titration calorimetry; crystal structure […] A; type: binding; settings: read-out: Ka (converted)
BipA (TypA or YihK) [2] = molecular target: T1, BipA (TypA or YihK); assay: as above; type: binding

T1 sequence (P0DTT0 whole entry): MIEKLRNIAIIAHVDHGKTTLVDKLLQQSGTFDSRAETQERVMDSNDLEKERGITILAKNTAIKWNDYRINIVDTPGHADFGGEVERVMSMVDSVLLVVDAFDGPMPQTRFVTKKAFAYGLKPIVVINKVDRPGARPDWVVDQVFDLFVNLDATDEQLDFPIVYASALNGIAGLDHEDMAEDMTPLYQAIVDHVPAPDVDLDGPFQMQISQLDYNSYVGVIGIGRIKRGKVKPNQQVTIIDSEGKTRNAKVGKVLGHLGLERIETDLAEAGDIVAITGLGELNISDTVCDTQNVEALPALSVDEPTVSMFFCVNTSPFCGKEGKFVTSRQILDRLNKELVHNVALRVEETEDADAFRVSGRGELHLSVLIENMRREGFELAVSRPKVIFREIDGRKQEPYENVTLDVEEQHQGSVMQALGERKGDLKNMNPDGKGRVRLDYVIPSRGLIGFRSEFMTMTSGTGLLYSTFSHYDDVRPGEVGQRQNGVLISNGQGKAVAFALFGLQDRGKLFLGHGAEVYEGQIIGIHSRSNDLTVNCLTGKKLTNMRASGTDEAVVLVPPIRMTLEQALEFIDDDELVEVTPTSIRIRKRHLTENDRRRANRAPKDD

Structure (SMILES): Nc1nc2c(ncn2[C@@H]2O[C@H](COP(=O)(O)OP(=O)(O)O)[C@@H](O)[C@H]2O)c(=O)[nH]1 [GDP]
- Kd (BipA (TypA or YihK) [1]): 14.5 µM

Structure (SMILES): Nc1nc2c(ncn2[C@@H]2O[C@H](COP(=O)(O)OP(=O)(O)O)[C@@H](OP(=O)(O)OP(=O)(O)O)[C@H]2O)c(=O)[nH]1 [ppGpp, guanosine-3′, 5′-bis pyrophosphate]
- Kd (BipA (TypA or YihK) [2]): 41.7 µM

Reference: article PMC4543647, “Structural and Functional Analysis of BipA, a Regulator of Virulence in Enteropathogenic Escherichia coli” (The Journal of Biological Chemistry, 2015)
